Experiments:
[1] = tested on: ENR+CD organoids (ISC to Paneth cell differentiation); assay: Primary screen: basal (non-stimulated) lysozyme secretion LYZ.NS, 2.5-D 384-well ENR+CD organoid differentiation; type: cell-based, mouse
Description: (§1) High-throughput screening.

ENR+CD organoids = assay: Primary screen: ATP (CellTiter-Glo 3D, CTG) cell number/viability, 2.5-D 384-well ENR+CD organoids;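 further: compounds given at plating and again on day 3 over a 6-day differentiation from ENR+CV stem-cell-enriched precursors, ATP measured on day 6, plate median as control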
[2] = tested on: ENR+CD organoids (ISC to Paneth cell differentiation); assay: Primary screen: CCh-stimulated lysozyme secretion LYZ.S, 2.5-D 384-well ENR+CD organoid differentiation; type: cell-based, mouse; details: primary screen
Description: as §1

[3] = primary screen, standard z score, dose 0.08 uM
[4] = primary screen, standard z score, dose 0.40 uM
[5] = primary screen, standard z score, dose 2.00 uM
[6] = primary screen, standard z score, dose 10.00 uM
[7] = primary screen, dose 0.08 uM, standard z score
[8] = primary screen, dose 0.40 uM, standard z score
[9] = primary screen, dose 2.00 uM, standard z score
[10] = primary screen, dose 10.00 uM, standard z score
[11] = primary screen; dose 0.08 uM; FC vs plate median
[12] = primary screen; dose 0.40 uM; FC vs plate median
[13] = primary screen; dose 2.00 uM; FC vs plate median
[14] = primary screen; dose 10.00 uM; FC vs plate median
[15] = primary screen, dose 0.08 uM, FC relative to plate median
[16] = primary screen, dose 0.40 uM, FC relative to plate median
[17] = primary screen, dose 2.00 uM, FC relative to plate median
[18] = primary screen, dose 10.00 uM, FC relative to plate median

CC(C)(C)c1nc(-c2cccc(NS(=O)(=O)c3c(F)cccc3F)c2F)c(-c2ccnc(N)n2)s1 [Dabrafenib (GSK2118436)]
Dose.FC.LYZ.NS ([1]; primary screen, dose 0.08 uM): 0.095 log2 fold change | Dose.FC.LYZ.NS ([1]; primary screen, dose 0.40 uM): 0.049 log2 fold change | Dose.FC.LYZ.NS ([1]; primary screen, dose 2.00 uM): −0.001 log2 fold change | Dose.FC.LYZ.NS ([1]; primary screen, dose 10.00 uM): −0.250 log2 fold change | Z.LYZ.NS [1, 3]: 0.830 | Z.LYZ.NS [1, 4]: 0.427 | Z.LYZ.NS [1, 5]: −0.006 | Z.LYZ.NS [1, 6]: −2.178 | Dose.FC.CTG (ENR+CD organoids; primary screen, dose 0.08 uM): −0.134 log2 fold change | Dose.FC.CTG (ENR+CD organoids; primary screen, dose 0.40 uM): 0.011 log2 fold change | Dose.FC.CTG (ENR+CD organoids; primary screen, dose 2.00 uM): −0.279 log2 fold change | Dose.FC.CTG (ENR+CD organoids; primary screen, dose 10.00 uM): −0.800 log2 fold change | Z.CTG (ENR+CD organoids; [3]): −0.320 | Z.CTG (ENR+CD organoids; [4]): 0.026 | Z.CTG (ENR+CD organoids; [5]): −0.667 | Z.CTG (ENR+CD organoids; [6]): −1.911 | Dose.FC.LYZ.S ([2]; dose 0.08 uM): 0.236 log2 fold change | Dose.FC.LYZ.S ([2]; dose 0.40 uM): 0.103 log2 fold change | Dose.FC.LYZ.S ([2]; dose 2.00 uM): 0.019 log2 fold change | Dose.FC.LYZ.S ([2]; dose 10.00 uM): −0.384 log2 fold change

CCN(CC)C(=O)/C(C#N)=C/c1cc(O)c(O)c([N+](=O)[O-])c1 [Entacapone]
Dose.FC.LYZ.NS ([1]; primary screen, dose 0.08 uM): 0.136 log2 fold change | Dose.FC.LYZ.NS ([1]; primary screen, dose 0.40 uM): 0.012 log2 fold change | Dose.FC.LYZ.NS ([1]; primary screen, dose 2.00 uM): 0.085 log2 fold change | Dose.FC.LYZ.NS ([1]; primary screen, dose 10.00 uM): 0.100 log2 fold change | Z.LYZ.NS [1, 3]: 1.183 | Z.LYZ.NS [1, 4]: 0.102 | Z.LYZ.NS [1, 5]: 0.744 | Z.LYZ.NS [1, 6]: 0.870 | Dose.FC.CTG (ENR+CD organoids; primary screen, dose 0.08 uM): −0.115 log2 fold change | Dose.FC.CTG (ENR+CD organoids; primary screen, dose 0.40 uM): −0.065 log2 fold change | Dose.FC.CTG (ENR+CD organoids; primary screen, dose 2.00 uM): 0.206 log2 fold change | Dose.FC.CTG (ENR+CD organoids; primary screen, dose 10.00 uM): −0.391 log2 fold change | Dose.FC.LYZ.S ([2]; dose 0.08 uM): 0.020 log2 fold change | Dose.FC.LYZ.S ([2]; dose 0.40 uM): 0.024 log2 fold change | Dose.FC.LYZ.S ([2]; dose 2.00 uM): 0.072 log2 fold change | Dose.FC.LYZ.S ([2]; dose 10.00 uM): 0.027 log2 fold change

C#Cc1cccc(Nc2ncnc3cc(OCCOC)c(OCCO)cc23)c1 [OSI-420]
Z.LYZ.NS [1, 7]: 1.002 | Z.LYZ.NS [1, 8]: −1.948 | Z.LYZ.NS [1, 9]: −2.498 | Z.LYZ.NS [1, 10]: −2.833 | Dose.FC.LYZ.NS [1, 11]: 0.115 log2 fold change | Dose.FC.LYZ.NS [1, 12]: −0.224 log2 fold change | Dose.FC.LYZ.NS [1, 13]: −0.287 log2 fold change | Dose.FC.LYZ.NS [1, 14]: −0.325 log2 fold change | Z.CTG (ENR+CD organoids; [7]): 0.254 | Z.CTG (ENR+CD organoids; [8]): −0.311 | Z.CTG (ENR+CD organoids; [9]): −3.016 | Z.CTG (ENR+CD organoids; [10]): −2.627 | Dose.FC.CTG (ENR+CD organoids; [11]): 0.106 log2 fold change | Dose.FC.CTG (ENR+CD organoids; [12]): −0.130 log2 fold change | Dose.FC.CTG (ENR+CD organoids; [13]): −1.263 log2 fold change | Dose.FC.CTG (ENR+CD organoids; [14]): −1.100 log2 fold change | Dose.FC.LYZ.S ([2]; dose 0.08 uM, FC vs plate median): 0.059 log2 fold change | Dose.FC.LYZ.S ([2]; dose 0.40 uM, FC vs plate median): −0.221 log2 fold change | Dose.FC.LYZ.S ([2]; dose 2.00 uM, FC vs plate median): −0.381 log2 fold change | Dose.FC.LYZ.S ([2]; dose 10.00 uM, FC vs plate median): −0.374 log2 fold change

NC(=O)c1ccc(I)c([N+](=O)[O-])c1 [Iniparib (B5I-201)]
Dose.FC.LYZ.NS (log2 fold change) ([1]; primary screen, dose 0.08 uM): 0.042 | Z.LYZ.NS (standard z score) ([1]; primary screen, dose 0.08 uM): 0.364 | Dose.FC.CTG (log2 fold change) (ENR+CD organoids; primary screen, dose 0.08 uM): 0.339 | Z.CTG (standard z score) (ENR+CD organoids; primary screen, dose 0.08 uM): 0.810 | Dose.FC.LYZ.S (log2 fold change) ([2]; dose 0.08 uM): 0.032

Cn1cnc2c(F)c(Nc3ccc(Br)cc3Cl)c(C(=O)NOCCO)cc21 [Selumetinib (AZD6244)]
Dose.FC.LYZ.NS [1, 15]: 0.021 log2 fold change | Z.LYZ.NS [1, 7]: 0.181 | Dose.FC.LYZ.NS [1, 16]: −0.022 log2 fold change | Z.LYZ.NS [1, 8]: −0.188 | Dose.FC.LYZ.NS [1, 17]: −0.097 log2 fold change | Z.LYZ.NS [1, 9]: −0.847 | Dose.FC.LYZ.NS [1, 18]: −0.140 log2 fold change | Z.LYZ.NS [1, 10]: −1.220 | Dose.FC.CTG (ENR+CD organoids; [15]): 0.164 log2 fold change | Z.CTG (ENR+CD organoids; [7]): 0.393 | Dose.FC.CTG (ENR+CD organoids; [16]): −0.165 log2 fold change | Z.CTG (ENR+CD organoids; [8]): −0.395 | Dose.FC.CTG (ENR+CD organoids; [17]): −0.257 log2 fold change | Z.CTG (ENR+CD organoids; [9]): −0.613 | Dose.FC.CTG (ENR+CD organoids; [18]): −0.852 log2 fold change | Z.CTG (ENR+CD organoids; [10]): −2.035 | Dose.FC.LYZ.S ([2]; dose 0.08 uM, FC relative to plate median): 0.004 log2 fold change | Dose.FC.LYZ.S ([2]; dose 0.40 uM, FC relative to plate median): −0.047 log2 fold change | Dose.FC.LYZ.S ([2]; dose 2.00 uM, FC relative to plate median): −0.175 log2 fold change | Dose.FC.LYZ.S ([2]; dose 10.00 uM, FC relative to plate median): −0.211 log2 fold change
